Experimental data as given in US6172038A, “Antipathogenic peptides and compositions comprising them” (priority 1996, dated 2001).

Assays:
Assay type in all cases: cell-based
[1] = test system: Acinetobacter calcoaceticus Ac11; experiment: Antibacterial activity (MIC), growth inhibition in 96-well plates; conditions: 100% inhibition of growth after 18-20 h at 37° C.
[2] = test system: P. aeruginosa and E. coli; experiment: Effect of pooled human serum on antibacterial activity
Procedure: (vi) Preparation of serunl Blood was collected from five volunteers and allowed to clot at room temperature for 4 h. The blood was then centrifuged for 15 min at 1500 g, and the serum was removed and pooled. The serum complement was inactivated by heating at 56° C. for 30 min.
(viii) Antibacterial activity of the peptides. The antibacterial activity of the diastereomers was examined in sterile 96-well plates (Nunc F96 microtiter plates) in a final volume of 100 μL as follows: Aliquots (50 μl) of a suspension containing bacteria at a concentration of 10^6 Colony-Forming Units (CFU)/ml LB (Lauria broth) medium were added to 50 μL of water or 66% pooled normal human serum in PBS, containing the peptide in 2-fold serial dilutions. Growth inhibition was determined by measuring the absorbance at 492 nm with a Microplate autoreader El309 (Bio-tek Instruments), following incubation for 18-20 h at 37° C. […] The bacteria used were: Escherichia coli D21, Pseudomonas aeruginosa ATCC 27853, Acinetobacter calcoaceticus Acl1, Salmonella typhimurium LT2, Bacillus megaterium Bml1, Micrococcus luteus ATCC 9341, Bacillus subtilis ATCC 6051.

Escherichia coli D21 = experiment: Antibacterial activity (MIC), growth inhibition in 96-well plates
Bacillus megaterium Bm11 = experiment: as above; conditions: 100% inhibition of growth after 18-20 h at 37° C.
[3] = test system: Pseudomonas aeruginosa ATCC 27853; experiment: Antibacterial activity (MIC), growth inhibition in 96-well plates; also synergy with tetracycline
Procedure: (viii) Antibacterial activity of the peptides.
Antibacterial activity of the mixtures was determined as described in Experimental procedures, section (xii).

[4] = test system: human red blood cells (hRBC); experiment: Hemolysis of human red blood cells; conditions: 50 μM peptide, 30 min at 37° C.
Procedure: (ix) Hemolysis of human red blood cells. The peptides were tested for their hemolytic activities against human red blood cells (hRBC). Fresh hRBC with EDTA were rinsed 3 times with PBS (35 mM phosphate buffer/0.15 M NaCl, pH 7.3) by centrifugation for 10 min at 800 g and resuspended in PBS. Peptides dissolved in PBS were then added to 50 μL of a solution of the stock hRBC in PBS to reach a final volume of 100 μL (final erythrocyte concentration, 5% v/v). The resulting suspension was incubated under agitation for 30 min at 37° C. The samples were then centrifuged at 800 g for 10 min. Release of hemoglobin was monitored by measuring the absorbance of the supernatant at 540 nm. Controls for zero hemolysis (blank) and 100% hemolysis consisted of hRBC suspended in PBS and Triton 1%, respectively.

[5] = test system: Bacillus subtilis ATCC 6051; experiment: Antibacterial activity (MIC), growth inhibition in 96-well plates; conditions: 100% inhibition of growth after 18-20 h at 37° C.
[6] = 100% inhibition of growth after 18-20 h at 37° C.

dermaseptin S [reference compound]
Minimal Inhibitory Concentration A. calcoaceticus (Ac11) [1]: 3 µM | fold less active in the presence of serum [2]: 8-10 fold | Minimal Inhibitory Concentration E. coli (D21) 0% Serum (Escherichia coli D21; 0% Serum): 6 µM | Minimal Inhibitory Concentration E. coli (D21) 33% Serum (Escherichia coli D21; 33% pooled human serum): 50 µM | Minimal Inhibitory Concentration E. coli (D21) (Escherichia coli D21; [6]): 6 µM | Minimal Inhibitory Concentration B. megaterium (Bm11) (Bacillus megaterium Bm11): 0.5 µM | Minimal Inhibitory Concentration P. aeruginosa (ATCC-27853) 0% Serum ([3]; 0% Serum): 25 µM | Minimal Inhibitory Concentration P. aeruginosa (ATCC-27853) 33% Serum ([3]; 33% pooled human serum): 200 µM | Minimal Inhibitory Concentration P. aeruginosa (ATCC 27853) [3, 6]: 25 µM | % hemolysis at 50 μM peptide [4]: 9% | Minimal Inhibitory Concentration B. subtilis (ATCC 6051) [5]: 4 µM
